# Measurements reported in PubChem BioAssay (NCI).
#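 Protocol summary: plate cells (96-well), add compound at 5 concentrations, incubate 48 h, interpolate endpoints linearly. The concentration for 50% growth inhibition is given as GI50. TGI denotes the concentration required for complete inhibition of growth.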
# Columns and labels:
# Assay in all cases: NCI-60 cell line screen, 48 h
# [1] = test system: SK-MEL-28 melanoma
# [2] = test system: SK-OV-3 ovarian
# [3] = test system: MDA-MB-435
# [4] = test system: OVCAR-5 ovarian
# [5] = test system: TK-10 renal
# [6] = test system: A549 NSCLC
# [7] = test system: CCRF-CEM leukemia
# [8] = test system: UACC-62 melanoma
# [9] = test system: HS 578T breast
# [10] = test system: PC-3 prostate
# [11] = test system: SF-539 CNS
# [12] = test system: EKVX NSCLC
# [13] = test system: SW-620 colon
# [14] = test system: HCC-2998 colon
# [15] = test system: T-47D breast
# [16] = test system: HL-60(TB) leukemia
# [17] = test system: CAKI-1 renal
# [18] = test system: A498 renal
# [19] = test system: UO-31 renal
# [20] = test system: MCF7 breast
# [21] = test system: SNB-75 CNS
# [22] = test system: SK-MEL-2 melanoma
# [23] = test system: HOP-92 NSCLC
# [24] = test system: RXF 393 renal
# [25] = test system: NCI-H226 lung
# [26] = test system: HT29 colon
# [27] = test system: MDA-MB-231 breast
# [28] = test system: NCI/ADR-RES ovarian
# [29] = test system: NCI-H460 lung
# [30] = test system: NCI-H23 lung
# [31] = test system: SF-295 CNS
# [32] = test system: U251 CNS
# [33] = test system: SF-268 CNS
# [34] = test system: COLO 205 colon
# [35] = test system: SK-MEL-5 melanoma
# [36] = test system: BT-549 breast
# [37] = test system: NCI-H522 lung
# [38] = test system: 786-0 renal
# [39] = test system: UACC-257 melanoma
# [40] = test system: ACHN renal
# [41] = test system: RPMI-8226 leukemia
# [42] = test system: OVCAR-4 ovarian
# [43] = test system: DU-145 prostate
# [44] = test system: MOLT-4 leukemia
# [45] = test system: OVCAR-8 ovarian
# [46] = test system: K-562 leukemia
# [47] = test system: MALME-3M melanoma
# [48] = test system: M14 melanoma
# [49] = test system: LOX IMVI melanoma
# [50] = test system: HOP-62 NSCLC
# [51] = test system: SNB-19 CNS
# [52] = test system: SN12C renal
# [53] = test system: KM12 colon
# [54] = test system: HCT-15 colon
# [55] = test system: SR leukemia
# [56] = test system: OVCAR-3 ovarian
# [57] = test system: HCT-116 colon
# [58] = test system: IGROV1 ovarian
smiles,measurement,setting,value
CC(C)N(Cc1ccccc1)c1c(S)ssc1=S,GI50,[1],2.09 µM
same,TGI,[1],17.8 µM
same,GI50,[2],2.47 µM
same,TGI,[2],9.59 µM
same,GI50,[3],0.694 µM
same,TGI,[3],18.5 µM
same,GI50,[4],3.56 µM
same,TGI,[4],> 100 µM
same,GI50,[5],5.08 µM
same,TGI,[5],> 100 µM
same,GI50,[6],2.41 µM
same,TGI,[6],12.9 µM
same,GI50,[7],0.849 µM
same,TGI,[7],6.66 µM
same,GI50,[8],0.452 µM
same,TGI,[8],15 µM
same,GI50,[9],0.861 µM
same,TGI,[9],7.08 µM
same,GI50,[10],2.23 µM
same,TGI,[10],9.44 µM
same,GI50,[11],3.06 µM
same,TGI,[11],10.4 µM
same,GI50,[12],2.2 µM
same,TGI,[12],8.49 µM
same,GI50,[13],2.69 µM
same,TGI,[13],12.7 µM
same,GI50,[14],4.36 µM
same,TGI,[14],74 µM
same,GI50,[15],1.17 µM
same,TGI,[15],18.6 µM
same,GI50,[16],1.16 µM
same,TGI,[16],3.12 µM
same,GI50,[17],0.661 µM
same,TGI,[17],> 100 µM
same,GI50,[18],0.723 µM
same,TGI,[18],4.12 µM
same,GI50,[19],3.6 µM
same,TGI,[19],70.6 µM
same,GI50,[20],1.57 µM
same,TGI,[20],5.02 µM
same,GI50,[21],2.98 µM
same,TGI,[21],26.9 µM
same,GI50,[22],3.53 µM
same,TGI,[22],31.1 µM
same,GI50,[23],0.342 µM
same,TGI,[23],3.79 µM
same,GI50,[24],2.17 µM
same,TGI,[24],10.1 µM
same,GI50,[25],3.14 µM
same,TGI,[25],36.1 µM
same,GI50,[26],2.29 µM
same,TGI,[26],9.59 µM
same,GI50,[27],1.77 µM
same,TGI,[27],5.49 µM
same,GI50,[28],3.33 µM
same,TGI,[28],> 100 µM
same,GI50,[29],2.33 µM
same,TGI,[29],10.7 µM
same,GI50,[30],3.83 µM
same,TGI,[30],96.3 µM
same,GI50,[31],1.19 µM
same,TGI,[31],11.7 µM
same,GI50,[32],2.58 µM
same,TGI,[32],15.9 µM
same,GI50,[33],2.86 µM
same,TGI,[33],31.7 µM
same,GI50,[34],1.56 µM
same,TGI,[34],4.26 µM
same,GI50,[35],0.605 µM
same,TGI,[35],2.82 µM
same,GI50,[36],3.01 µM
same,TGI,[36],9.21 µM
same,GI50,[37],2.06 µM
same,TGI,[37],> 100 µM
same,GI50,[38],3.65 µM
same,TGI,[38],> 100 µM
same,GI50,[39],1.54 µM
same,TGI,[39],6.2 µM
same,GI50,[40],1.97 µM
same,TGI,[40],12.4 µM
same,GI50,[41],0.772 µM
same,TGI,[41],6.27 µM
same,GI50,[42],0.641 µM
same,TGI,[42],> 100 µM
same,GI50,[43],3.15 µM
same,TGI,[43],28.7 µM
same,GI50,[44],1.69 µM
same,TGI,[44],7.39 µM
same,GI50,[45],2.44 µM
same,TGI,[45],22.2 µM
same,GI50,[46],0.941 µM
same,TGI,[46],3.81 µM
same,GI50,[47],1.65 µM
same,TGI,[47],5.99 µM
same,GI50,[48],4.67 µM
same,TGI,[48],> 100 µM
same,GI50,[49],3.08 µM
same,TGI,[49],15.5 µM
same,GI50,[50],4.24 µM
same,TGI,[50],> 100 µM
same,GI50,[51],3.76 µM
same,TGI,[51],> 100 µM
same,GI50,[52],2.42 µM
same,TGI,[52],19.7 µM
same,GI50,[53],2.47 µM
same,TGI,[53],21.7 µM
same,GI50,[54],3.16 µM
same,TGI,[54],13.5 µM
same,GI50,[55],2.16 µM
same,TGI,[55],7.89 µM
same,GI50,[56],1.21 µM
same,TGI,[56],> 100 µM
same,GI50,[57],2.72 µM
same,TGI,[57],26.8 µM
COc1cc(CSc2nc3ccc(C)cc3c(=O)n2-c2ccccc2)cc(OC)c1OC,GI50,[1],2.8 µM
same,TGI,[1],> 100 µM
same,GI50,[2],1.97 µM
same,TGI,[2],> 100 µM
same,GI50,[3],0.269 µM
same,TGI,[3],0.896 µM
same,GI50,[4],6.26 µM
same,TGI,[4],> 100 µM
same,GI50,[5],8.1 µM
same,TGI,[5],> 100 µM
same,GI50,[58],3.36 µM
same,TGI,[58],> 100 µM
same,GI50,[6],1.59 µM
same,TGI,[6],> 100 µM
same,GI50,[7],2.66 µM
same,TGI,[7],> 100 µM
same,GI50,[8],1.93 µM
same,TGI,[8],> 100 µM
same,GI50,[9],2.16 µM
same,TGI,[9],> 100 µM
same,GI50,[10],3.25 µM
same,TGI,[10],> 100 µM
same,GI50,[11],2.08 µM
same,TGI,[11],9.52 µM
same,GI50,[13],0.91 µM
same,TGI,[13],> 100 µM
same,GI50,[14],5.49 µM
same,TGI,[14],> 100 µM
same,GI50,[15],1.56 µM
same,TGI,[15],> 100 µM
same,GI50,[16],1.72 µM
same,TGI,[16],> 100 µM
same,GI50,[17],2.79 µM
same,TGI,[17],> 100 µM
same,GI50,[18],1.92 µM
same,TGI,[18],9.15 µM
same,GI50,[19],3.67 µM
same,TGI,[19],> 100 µM
same,GI50,[20],0.548 µM
same,TGI,[20],> 100 µM
same,GI50,[21],0.328 µM
same,TGI,[21],2.98 µM
same,GI50,[22],3.52 µM
same,TGI,[22],> 100 µM
same,GI50,[23],1.03 µM
same,TGI,[23],8.74 µM
same,GI50,[24],1.1 µM
same,TGI,[24],> 25.5 µM
same,GI50,[25],3.4 µM
same,TGI,[25],> 100 µM
same,GI50,[26],0.759 µM
same,TGI,[26],> 100 µM
same,GI50,[27],2.92 µM
same,TGI,[27],> 100 µM
same,GI50,[28],1.26 µM
same,TGI,[28],> 100 µM
same,GI50,[29],2.3 µM
same,TGI,[29],> 100 µM
same,GI50,[30],6.97 µM
same,TGI,[30],> 100 µM
same,GI50,[31],2.41 µM
same,TGI,[31],48 µM
same,GI50,[32],3.77 µM
same,TGI,[32],> 100 µM
same,GI50,[33],6.37 µM
same,TGI,[33],> 100 µM
same,GI50,[34],0.576 µM
same,TGI,[34],3.97 µM
same,GI50,[35],0.435 µM
same,TGI,[35],19.9 µM
same,GI50,[36],5.28 µM
same,TGI,[36],> 100 µM
same,GI50,[37],1.44 µM
same,TGI,[37],> 25.3 µM
same,GI50,[38],6.56 µM
same,TGI,[38],> 100 µM
same,GI50,[39],19.4 µM
same,TGI,[39],> 100 µM
same,GI50,[40],4.78 µM
same,TGI,[40],> 100 µM
same,GI50,[41],3.28 µM
same,TGI,[41],> 100 µM
same,GI50,[42],4.92 µM
same,TGI,[42],> 100 µM
same,GI50,[43],3.59 µM
same,TGI,[43],> 100 µM
same,GI50,[44],3.85 µM
same,TGI,[44],> 100 µM
same,GI50,[45],4.51 µM
same,TGI,[45],> 100 µM
same,GI50,[46],0.534 µM
same,TGI,[46],> 100 µM
same,GI50,[47],3.73 µM
same,TGI,[47],> 100 µM
same,GI50,[48],1.4 µM
same,TGI,[48],> 100 µM
same,GI50,[49],4.13 µM
same,TGI,[49],> 100 µM
same,GI50,[50],2.48 µM
same,TGI,[50],> 100 µM
same,GI50,[51],13.8 µM
same,TGI,[51],> 100 µM
same,GI50,[52],4.56 µM
same,TGI,[52],> 100 µM
same,GI50,[53],0.99 µM
same,TGI,[53],> 100 µM
same,GI50,[54],0.577 µM
same,TGI,[54],> 100 µM
same,GI50,[55],0.409 µM
same,TGI,[55],> 40.8 µM
same,GI50,[56],1.95 µM
same,TGI,[56],> 27.3 µM
same,GI50,[57],1.03 µM
same,TGI,[57],> 100 µM
